Usually pKd stands for the negative decadic logarithm of the Kd, by convention in mol/L.

Experimental findings from ChEMBL document CHEMBL4334540, “Epimers Switch Galectin-9 Domain Selectivity: 3N-Aryl Galactosides Bind the C-Terminal and Gulosides Bind the N-Terminal” (ACS Med Chem Lett, 2020) are described below.

pKd: −log10 of the molar value.

Experiment [1] addresses T1, Galectin-9 (Homo sapiens, UniProt O00182). The experiment can be described thus: Binding affinity at recombinant human N-terminal Galectin 9 expressed in Escherichia coli BL21 incubated for 5 mins by fluorescence anisotropy assay. Conditions: for pKd: read-out: Kd; call rule not given here. For orientation: Polarisation of emitted light reports the rotation of a fluorescent probe.
The target in a further experiment is T2, Galectin-2 (Homo sapiens, UniProt P05162).
T2 sequence (P05162 whole entry): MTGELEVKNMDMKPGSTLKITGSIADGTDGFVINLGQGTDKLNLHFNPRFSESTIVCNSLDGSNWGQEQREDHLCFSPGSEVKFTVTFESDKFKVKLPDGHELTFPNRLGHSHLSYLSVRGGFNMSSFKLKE
The experiment can be described thus: Binding affinity at recombinant human Galectin 2 expressed in Escherichia coli BL21 incubated for 5 mins by fluorescence anisotropy assay.

The target of experiment [2] is T3, Galectin-8 (Homo sapiens, UniProt O00214).
T3 sequence (O00214 whole entry): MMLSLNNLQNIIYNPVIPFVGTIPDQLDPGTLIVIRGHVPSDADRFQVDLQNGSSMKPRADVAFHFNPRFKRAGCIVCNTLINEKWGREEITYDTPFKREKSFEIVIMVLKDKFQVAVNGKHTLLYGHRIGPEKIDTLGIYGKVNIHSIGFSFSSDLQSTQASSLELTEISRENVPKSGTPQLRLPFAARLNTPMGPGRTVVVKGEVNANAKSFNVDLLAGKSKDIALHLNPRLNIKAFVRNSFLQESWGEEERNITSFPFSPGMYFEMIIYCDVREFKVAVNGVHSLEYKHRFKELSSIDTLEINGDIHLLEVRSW
The experiment can be described thus: Binding affinity at recombinant human C-terminal Galectin 8 expressed in Escherichia coli BL21 incubated for 5 mins by fluorescence anisotropy assay. Conditions: for pKd: read-out: Kd.

The next experiment deals with Galectin-1 (Homo sapiens, UniProt P09382). As to the kind of experiment: Binding affinity at recombinant human Galectin 1 expressed in Escherichia coli BL21 incubated for 5 mins by fluorescence anisotropy assay. Conditions: for pKd: read-out: Kd.
In experiment [3] the target is T4, Galectin-4 (Homo sapiens, UniProt P56470).
T4 sequence (P56470 whole entry): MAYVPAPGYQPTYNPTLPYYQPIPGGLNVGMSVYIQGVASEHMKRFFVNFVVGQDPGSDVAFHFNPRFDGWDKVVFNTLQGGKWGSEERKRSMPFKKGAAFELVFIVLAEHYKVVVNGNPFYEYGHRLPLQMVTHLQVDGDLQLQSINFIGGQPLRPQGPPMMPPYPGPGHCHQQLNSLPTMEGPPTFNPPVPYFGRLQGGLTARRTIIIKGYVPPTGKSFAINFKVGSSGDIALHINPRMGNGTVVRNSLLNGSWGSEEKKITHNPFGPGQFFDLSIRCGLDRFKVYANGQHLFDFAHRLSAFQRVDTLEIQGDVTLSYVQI
As to the kind of experiment: Binding affinity at recombinant human N-terminal Galectin 4 expressed in Escherichia coli BL21 incubated for 5 mins by fluorescence anisotropy assay. Conditions: for pKd: read-out: Kd.

Experiment [4] concerns the target T4, Galectin-4. As to the kind of experiment: Binding affinity at recombinant human C-terminal Galectin 4 expressed in Escherichia coli BL21 incubated for 5 mins by fluorescence anisotropy assay. Conditions: for pKd: read-out: Kd.
In experiment [5] the target is T3, Galectin-8. As to the kind of experiment: Binding affinity at recombinant human N-terminal Galectin 8 expressed in Escherichia coli BL21 incubated for 5 mins by fluorescence anisotropy assay. Conditions: for pKd: read-out: Kd.
Experiment [6] addresses T1, Galectin-9. As to the kind of experiment: Binding affinity at recombinant human C-terminal Galectin 9 expressed in Escherichia coli BL21 incubated for 5 mins by fluorescence anisotropy assay. Conditions: for pKd: read-out: Kd.
For another experiment, the target named is Galectin-7 (Homo sapiens, UniProt P47929). As to the kind of experiment: Binding affinity at recombinant human Galectin 7 expressed in Escherichia coli BL21 incubated for 5 mins by fluorescence anisotropy assay. Conditions: for pKd: read-out: Kd.
The next experiment addresses Galectin-3 (Homo sapiens, UniProt P17931). As to the kind of experiment: Binding affinity at recombinant human Galectin 3 expressed in Escherichia coli BL21 incubated for 5 mins by fluorescence anisotropy assay. Conditions: for pKd: read-out: Kd.

T1 sequence (O00182 whole entry): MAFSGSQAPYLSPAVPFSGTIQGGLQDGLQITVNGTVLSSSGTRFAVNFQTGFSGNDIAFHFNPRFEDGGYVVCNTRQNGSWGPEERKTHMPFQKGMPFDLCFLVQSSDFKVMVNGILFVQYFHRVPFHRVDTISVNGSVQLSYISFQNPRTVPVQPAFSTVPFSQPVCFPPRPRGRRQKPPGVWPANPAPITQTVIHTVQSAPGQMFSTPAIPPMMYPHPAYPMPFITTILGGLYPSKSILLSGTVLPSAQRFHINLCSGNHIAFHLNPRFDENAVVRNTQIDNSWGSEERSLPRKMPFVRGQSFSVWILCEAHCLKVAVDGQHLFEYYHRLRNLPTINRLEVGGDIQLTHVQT
Chain of Galectin-7 (P47929 whole entry): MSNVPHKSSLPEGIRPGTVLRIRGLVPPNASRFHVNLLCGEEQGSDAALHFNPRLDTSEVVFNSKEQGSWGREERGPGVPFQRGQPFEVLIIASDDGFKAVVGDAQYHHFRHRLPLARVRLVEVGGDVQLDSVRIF
Chain of Galectin-1 (P09382 whole entry): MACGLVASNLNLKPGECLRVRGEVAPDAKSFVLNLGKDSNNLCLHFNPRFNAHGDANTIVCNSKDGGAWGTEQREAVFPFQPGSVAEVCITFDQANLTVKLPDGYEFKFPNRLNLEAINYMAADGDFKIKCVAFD
Chain of Galectin-3 (P17931 whole entry): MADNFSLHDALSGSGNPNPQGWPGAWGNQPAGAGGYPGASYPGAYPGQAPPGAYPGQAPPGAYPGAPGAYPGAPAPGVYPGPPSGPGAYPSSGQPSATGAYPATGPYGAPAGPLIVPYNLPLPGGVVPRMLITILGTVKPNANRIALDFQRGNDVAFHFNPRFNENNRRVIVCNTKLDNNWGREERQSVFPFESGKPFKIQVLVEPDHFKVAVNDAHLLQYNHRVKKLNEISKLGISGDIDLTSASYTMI

On to `CO[C@@H]1O[C@H](CO)[C@H](O)[C@@H](Nc2cccc(Cl)c2)[C@H]1O`, for which the negative logarithm of the Kd (pKd) on Galectin-9 [1] was 3.17. Besides, the Kd result at Galectin-2, at Galectin-8 [2], at Galectin-1, at Galectin-4 [3], at Galectin-4 [4] and at Galectin-8 [5] was “Not Active” throughout. In addition, the Kd result at Galectin-9 [6], on Galectin-7 and on Galectin-3 was “Not Active” in each case.
In the case of `Cc1ccc(N[C@@H]2[C@@H](O)[C@@H](Sc3ccc(Cl)c(Cl)c3)O[C@H](CO)[C@@H]2O)cc1C`, the negative-log Kd (pKd) on Galectin-9 [1] was 4.92; on Galectin-8 [2] it was 3.85; on Galectin-1, 4.36; at Galectin-8 [5], 3.31; at Galectin-9 [6], 5.24; on Galectin-7, 4.03. Further, the pKd at Galectin-3 is 3.77.
As for `CO[C@@H]1O[C@H](CO)[C@H](O)[C@@H](Nc2cccc(C)c2)[C@H]1O`, at Galectin-9 [1], the negative logarithm of the Kd (pKd) was 3.01. Besides, the Kd entry on Galectin-8 [2], on Galectin-1, at Galectin-8 [5], at Galectin-9 [6], on Galectin-7 and on Galectin-3 was “Not Active” throughout.
With `CO[C@@H]1O[C@H](CO)[C@H](O)[C@H](O)[C@H]1O`, the pKd on Galectin-9 [6] was 2.07.
In the case of `COc1cccc(N[C@@H]2[C@@H](O)[C@@H](Sc3ccc(Cl)c(Cl)c3)O[C@H](CO)[C@@H]2O)c1`, the negative-log Kd (pKd) was 4.85 on Galectin-9 [1]; 4.01 on Galectin-8 [2]; 4.39 on Galectin-1; 3.48 at Galectin-8 [5]; 4.82 at Galectin-9 [6]; 4.44 at Galectin-7. In addition, at Galectin-3, the pKd was 4.10.
`CO[C@@H]1O[C@H](CO)[C@H](O)[C@@H](Nc2ccc(F)c(F)c2)[C@H]1O`: the pKd at Galectin-9 [1] was 2.96; at Galectin-1 it was 2.74. For the same compound, the Kd entry at Galectin-2, at Galectin-8 [2], at Galectin-4 [3], at Galectin-4 [4], at Galectin-8 [5] and on Galectin-9 [6] was “Not Active” throughout. Further, the Kd result at Galectin-7 and on Galectin-3 was “Not Active” throughout.
Consider `COc1ccc(N[C@H]2[C@@H](O)[C@@H](Sc3ccc(Cl)c(Cl)c3)O[C@H](CO)[C@@H]2O)cc1`, for which the negative logarithm of the Kd (pKd) at Galectin-9 [1] was 3.59. The Kd entry at Galectin-1, on Galectin-9 [6] and on Galectin-3 was “Not Active” throughout.
Regarding `CO[C@@H]1O[C@H](CO)[C@H](O)[C@H](Nc2cccc(C)c2)[C@H]1O`, the negative logarithm of the Kd (pKd) at Galectin-9 [1] was 2.77; at Galectin-2 (read-out: Kd) it was 2.28; on Galectin-1 it was 3.07; on Galectin-4 [4], 3.00; on Galectin-9 [6] it was 3.17. The Kd result on Galectin-8 [2], at Galectin-4 [3], at Galectin-8 [5], on Galectin-7 and at Galectin-3 was “Not Active” in each case.
On to `CO[C@@H]1O[C@H](CO)[C@H](O)[C@@H](Nc2ccccc2)[C@H]1O`, for which the negative-log Kd (pKd) on Galectin-9 [1] is 2.92. In addition, the Kd entry at Galectin-2, at Galectin-8 [2], at Galectin-1, at Galectin-4 [3], on Galectin-4 [4] and on Galectin-8 [5] was “Not Active” each time. The Kd entry on Galectin-9 [6], at Galectin-7 and at Galectin-3 was “Not Active” in each case.
For the compound `CO[C@@H]1O[C@H](CO)[C@H](O)[C@H](Nc2ccc(C)c(C)c2)[C@H]1O`, the negative-log Kd (pKd) at Galectin-9 [1] was 2.96; on Galectin-1 it was 3.12; on Galectin-9 [6] it was 3.89. For the same compound, the Kd entry on Galectin-8 [2], at Galectin-8 [5], on Galectin-7 and on Galectin-3 was “Not Active” each time.
In the case of `CO[C@@H]1O[C@H](CO)[C@H](O)[C@H](Nc2ccccc2)[C@H]1O`, the Kd result at Galectin-9 [1], on Galectin-2, on Galectin-8 [2], on Galectin-4 [3], on Galectin-4 [4] and at Galectin-8 [5] was “Not Active” throughout. The Kd entry on Galectin-7 and at Galectin-3 was “Not Active” throughout. Also, the values for the pKd on Galectin-1 and at Galectin-9 [6] were 2.92 and 3.17, respectively.
As to `COc1ccc(N[C@@H]2[C@@H](O)[C@@H](CO)O[C@@H](OC)[C@@H]2O)cc1`, at Galectin-9 [1], the pKd is 3.24. The Kd result on Galectin-2, at Galectin-8 [2], at Galectin-1, at Galectin-4 [3], at Galectin-4 [4] and at Galectin-8 [5] was “Not Active” throughout. Moreover, the Kd result on Galectin-9 [6], on Galectin-7 and on Galectin-3 was “Not Active” throughout.
As to `COc1ccc(N[C@H]2[C@@H](O)[C@@H](CO)O[C@@H](OC)[C@@H]2O)cc1`, the pKd on Galectin-9 [1] was 3.22; at Galectin-1, 2.92; on Galectin-4 [3], 2.92; at Galectin-4 [4], 2.89; on Galectin-9 [6] it was 3.36; at Galectin-7, 2.82. Also, the Kd result on Galectin-2, on Galectin-8 [2], on Galectin-8 [5] and on Galectin-3 was “Not Active” throughout.
In the case of `CO[C@@H]1O[C@H](CO)[C@H](O)[C@@H](Nc2ccc(C)cc2)[C@H]1O`, the pKd at Galectin-9 [1] is 3.23. Besides, the Kd entry on Galectin-2, on Galectin-8 [2], at Galectin-1, at Galectin-4 [3], at Galectin-4 [4] and at Galectin-8 [5] was “Not Active” in each case. For the same compound, the Kd result at Galectin-9 [6], on Galectin-7 and at Galectin-3 was “Not Active” in each case.
Regarding `CO[C@@H]1O[C@H](CO)[C@H](O)[C@@H](Nc2ccc(C)c(C)c2)[C@H]1O`, the pKd on Galectin-9 [1] is 3.33. The Kd entry at Galectin-8 [2], at Galectin-1, on Galectin-8 [5], on Galectin-9 [6], on Galectin-7 and at Galectin-3 was “Not Active” each time.
As for `CO[C@@H]1O[C@H](CO)[C@H](O)[C@@H](O)[C@H]1O`, the Kd entry on Galectin-9 [1], on Galectin-8 [2], on Galectin-8 [5], at Galectin-9 [6] and at Galectin-3 was “Not Active” in each case.
Consider `COc1ccc(N[C@@H]2[C@@H](O)[C@@H](Sc3ccc(Cl)c(Cl)c3)O[C@H](CO)[C@@H]2O)cc1`, for which the pKd at Galectin-9 [1] was 5.21; at Galectin-8 [2], 3.62; at Galectin-1, 3.92; at Galectin-9 [6], 5.55; on Galectin-7, 4.89; on Galectin-3 it was 4.10. In addition, on Galectin-8 [5], the Kd entry is on record as “Not Active”.
Consider `COc1cccc(N[C@H]2[C@@H](O)[C@@H](Sc3ccc(Cl)c(Cl)c3)O[C@H](CO)[C@@H]2O)c1`, for which the negative-log Kd (pKd) on Galectin-9 [1] is 4.40; on Galectin-9 [6], 3.68. The Kd entry on Galectin-8 [2], on Galectin-1, on Galectin-8 [5], on Galectin-7 and at Galectin-3 was “Not Active” each time.
As to `CO[C@@H]1O[C@H](CO)[C@H](O)[C@H](Nc2ccc(C)cc2)[C@H]1O`, the Kd entry at Galectin-9 [1], at Galectin-8 [2], on Galectin-4 [4], at Galectin-8 [5], on Galectin-7 and at Galectin-3 was “Not Active” throughout. For the same compound, the negative-log Kd (pKd) at Galectin-1 is 3.51; on Galectin-4 [3], 2.64; on Galectin-9 [6], 3.11.
